In PMC7763917, “A Facile Semisynthesis and Evaluation of Garcinoic Acid and Its Analogs for the Inhibition of Human DNA Polymerase β” (Molecules, 2020):
pIC50: −log10 of the molar value.

Molecular target: T1, human DNA polymerase β (hpol β) (Homo sapiens, UniProt P06746)
Assay: not given
Parameters: method as in PMID 16146411
Conditions: garcinoic acid analog with the dihydropyran ring opened; not in Table 2, no reference printed at the sentence; cited from earlier work
For C/C(=C\CC/C(C)=C/CC[C@@](C)(O)CCc1cc(O)cc(C)c1O)CC/C=C(\C)C(=O)O [chrysochlamic acid], the “hpol β inhibition activity (in words)” value is listed as “lack of hpol β inhibition activity”.

Molecular target: T1, human DNA polymerase β (hpol β)
Assay: fluorescence-based polymerase inhibition assay
Format: biochemical
Conditions: 1 nM hpol β, 50 nM DNA, 100 μM dTTP, 25 °C; compounds tested from 1 μM to 120 μM; mean of triplicate; read-out: IC50 in inhibiting hpol β
Procedure: A fluorescence-based assay, as described previously, was used to determine the IC50 values for garcinoic acid and its homologs for human DNA polymerase β. DNA substrates were prepared as we reported previously. Briefly, a reporter strand conjugated with 5-carboxytetramethylrhodamine (TAMRA) and an unlabeled primer were annealed to a Black Hole Quencher (BHQ)-labelled template strand in a solution containing 10 mM Tris (pH 8.0) and 50 mM NaCl. The oligonucleotides were annealed in a 1:1.5:1.5 ratio for reporter, primer and template strand, respectively. The oligonucleotides were mixed and incubated for 3 min at 95 °C before cooling to room temperature.
The polymerase reaction was performed with 1 nM hpol β, 50 nM DNA, 100 μM dTTP and 2 mM MgCl2 in 50 mM Tris (pH 8.0) buffer containing 40 mM NaCl, 2 mM DTT and 0.01% (w/v) Tween 20. The reaction mix containing enzyme and dTTP were incubated for 5 min with the compound or DMSO in a 96-well plate before adding DNA to initiate the reaction. Polymerase reactions were performed at room temperature (25 °C). The plate was read continuously for one hour with a Synergy H4 plate reader (BioTek, λex = 525 nm, λem = 598 nm) (Winooski, VT, USA) after initiation of the reaction. The percent inhibition was calculated by dividing the rate of product formation at each compound concentration by the rate of product formation in DMSO control. The data was fit to a four-parameter logistic model with variable slope in Prism (San Diego, CA, USA) to calculate the IC50 values. The reactions were performed in triplicate and the mean IC50 value is reported with 95% confidence intervals.
In the case of C/C(=C\CC[C@]1(C)CCc2cc(O)cc(C)c2O1)CC/C=C(\C)C(=O)O [Compound 10a, 9-[(R)-6-Hydroxy-2,8-dimethylchroman-2-yl]-2,6-dimethylnona-2E,6E-dienoic acid], the pIC50 was 4.28. COc1cc(C)c2c(c1)CC[C@@](C)(CC/C=C(\C)CC/C=C(\C)CC/C=C(\C)C(=O)O)O2 [Compound 16, 13-[(R)-6-methoxy-2,8-dimethylchroman-2-yl]-2,6,10-trimethyltrideca-2E,6E,10E-trienoic Acid] gave a pIC50 of 4.51. COC(=O)/C(C)=C/CC[C@]1(C)CCc2cc(O)cc(C)c2O1 [Compound 12a, Methyl 5-[(R)-6-hydroxy-2,8-dimethylchroman-2-yl]-2-methylpent-2E-enoate] gave a pIC50 of less than 3.92. Work on COC(=O)/C(C)=C/CC/C(C)=C/CC[C@]1(C)CCc2cc(O)cc(C)c2O1 [Compound 13a, Methyl 9-[(R)-6-hydroxy-2,8-dimethylchroman-2-yl]-2,6-dimethylnona-2E,6E-dienoate] yielded a pIC50 of less than 3.92. COC(=O)/C=C/CC/C(C)=C/CC[C@]1(C)CCc2cc(O)cc(C)c2O1 [Compound 13b, Methyl 9-[(R)-6-hydroxy-2,8-dimethylchroman-2-yl]-6-methylnona-2E,6E-dienoate] gave a pIC50 of less than 3.92. With COC(=O)/C(C)=C/CC/C(C)=C/CC/C(C)=C/CC[C@]1(C)CCc2cc(OC)cc(C)c2O1 [Compound 15, Methyl 13-[(R)-6-methoxy-2,8-dimethylchroman-2-yl]-2,6,10-trimethyltrideca-2E,6E,10E-trienoate] the pIC50 was less than 3.92. In the case of C/C(=C\CC/C(C)=C/CC[C@]1(C)CCc2cc(O)cc(C)c2O1)CC/C=C/C(=O)O [Compound 11, 13-[(R)-6-Hydroxy-2,8-dimethylchroman-2-yl]-6,10-dimethyltrideca-2E,6E,10E-trienoic acid], the pIC50 was 4.64. Molecule C/C(=C\CC[C@]1(C)CCc2cc(O)cc(C)c2O1)CC/C=C/C(=O)O [Compound 10b, 9-[(R)-6-Hydroxy-2,8-dimethylchroman-2-yl]-6-methylnona-2E,6E-dienoic acid] has a pIC50 of 4.31. Molecule C/C(=C\CC/C(C)=C/CC[C@]1(C)CCc2cc(O)cc(C)c2O1)CC/C=C(\C)C(=O)O [Compound 1, 13-[(R)-6-Hydroxy-2,8-dimethylchroman-2-yl]-2,6,10-trimethyltrideca-2E,6E,10E-trienoic acid] has a pIC50 of 4.96. For COC(=O)/C=C/CC/C(C)=C/CC/C(C)=C/CC[C@]1(C)CCc2cc(O)cc(C)c2O1 [Compound 14b, Methyl 13-[(R)-6-hydroxy-2,8-dimethylchroman-2-yl]-6,10-dimethyltrideca-2E,6E,10E-trienoate], the pIC50 was less than 3.92. Cc1cc(O)cc2c1O[C@](C)(CC/C=C/C(=O)O)CC2 [Compound 9b, 5-[(R)-6-Hydroxy-2,8-dimethylchroman-2-yl]pent-2E-enoic acid] gave a pIC50 of less than 3.92. Work on COC(=O)/C=C/CC[C@]1(C)CCc2cc(O)cc(C)c2O1 [Compound 12b, Methyl 5-[(R)-6-hydroxy-2,8-dimethylchroman-2-yl]pent-2E-enoate] yielded a pIC50 of less than 3.92. Molecule COC(=O)/C(C)=C/CC/C(C)=C/CC/C(C)=C/CC[C@]1(C)CCc2cc(O)cc(C)c2O1 [Compound 14a, Methyl 13-[(R)-6-hydroxy-2,8-dimethylchroman-2-yl]-2,6,10-trimethyltrideca-2E,6E,10E-trienoate] has a pIC50 of less than 3.92. Work on C/C(=C\CC[C@]1(C)CCc2cc(O)cc(C)c2O1)C(=O)O [Compound 9a, 5-[(R)-6-Hydroxy-2,8-dimethylchroman-2-yl]-2-methylpent-2E-enoic acid] yielded a pIC50 of less than 3.92.
